# Results: patent publication US11541029B2, “High penetration compositions and their applications” (Techfields Pharma Co., Ltd., priority 2008, dated 2023)
# Tests used:
# [1] = system: GK rats (SLAC/GK, type 2 diabetes); assay: Anti-diabetes (type II) activity of HPCs of NSAIAs in GK rats; type: in vivo; settings: 30 mg/kg transdermally once per day, no fasting
# Method in brief: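 GK (type 2 diabetic) and normal SD rats, 14-16 weeks old, n=7, received 30 mg/kg test compound in 25% ethanol transdermally on a 6 cm^2 shaved back area once daily at 8 am for 6 weeks. Non-fasting blood glucose was measured at 4:30 pm every 3 days from week 3 to week 6.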
# [2] = system: fungal diseases and insects of peach trees; assay: Antiviral, anti-fungus, anti-insect activity in peach trees; type: in vivo
# Procedure: 240 Peach trees were divided into 4 groups. All field operations concerning land preparation and the uses of fertilizers were same for all groups. Group A (n=60) was control group with no chemical treatments. Group B (n=60) was normal fungicides and insecticides-treated group. Group C (n=60) was treated with N,N-diethylaminoethyl acetylsalicylate plus some insecticides. Group D (n=60) was N,N-diethylaminoethyl acetylsalicylate and N,N-diethylaminoethyl jasmonate.citric acid treated group. In group A, Peach Leaf Curl, Peach Scab, Brown Rot, Black Knot and other fungal diseases were found and different scale insects, Shothole Borer, Peach tree Borer, Lesser Peachtree Borer, fruit Moth and other diseases and insects were found. No any good (edible) fruits were harvested. In group B, 100 g of ferbam [iron tris(dimethyldithiocarbamate)] […] Group C was N,N-diethylaminoethyl acetylsalicylate-treated group. 50 g of N,N-diethylaminoethyl acetylsalicylate in 50 kg of water was applied to the group C Peach trees on November 15, March 1, March 20, and June 20, 50 g of N,N-diethylaminoethyl acetylsalicylate, 125 g of Malathion 50% EC, 125 g of 1-naphthyl methylcarbamate 50% WP and 60 g of thiophanate-methyl 50% WP in 50 kg of water was applied to the group C peach trees on April 1, April 20, May 10, and May 30. Yield 3000 kg of good (edible) peaches. […]
# [3] = Distribution in organs of rats killed with CO2 (absence of general circulation); settings: 5 hrs after 0.3 mmol/kg diethylaminoethyl acetylsalicylate HCl salt on back of killed rats;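 also: tissue concentration in nmol/g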
# Procedure: 0.3 mmol/kg of diethylaminoethyl acetylsalicylate HCl salt (10% in pure water) was applied to the back of rats (10 cm^2) which were killed with CO2. The rats were shaken for 5 hrs, then the HPCs and parent drugs in organs of rats were determined.
# SLAC/DB/DB obese mice = assay: Blood glucose and blood lipid levels in DB/DB mice; type: in vivo; settings: 30 mg/kg transdermally once per day
# Method in brief: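 SLAC/DB/DB mice aged 10-12 weeks, n=7, dosed transdermally at 30 mg/kg in 25% ethanol onto a shaved 4 cm^2 back area once daily at 8 am for 5 weeks. Blood glucose measured weekly; blood lipids every other week.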
# [4] = system: MPTP-induced Parkinson's disease mice; assay: Anti-Parkinson's disease activity in MPTP-induced mice; settings: MPTP mice, 30 mg/kg, n = 10
# Procedure: Group A mice were ip injected 0.4% sodium carboxymethylcellulos (15 ml/kg per day) for 7 days. Group B and C mice were ip injected N-methyl-4-phenyl-1,2,3,6-tetrahydropyridine (MPTP, 30 mg/kg per day) for 7 days. The mice were divided into 2 groups. […] All mice were killed after the last treatment and the brain tissues were quickly freezed at −80° C. […] The contents of malondialdehyde (MDA) in the SN were measured with the thiobarbituric acid-reaction to indicate the LPO, and contents of glutathione (GSH) in the substantia nigra (SN) were based on the dithionitrobenzonic acid (DTNB) determination. The contents of GABA and Glu in the striatum and SN were shown by high performance amino acid auto-analyser.
compound,measurement,setting,value
"CCN(CC)CCOC(=O)c1ccccc1OC(C)=O.Cl [P-1, diethylaminoethyl acetylsalicylate.HCl salt]","blood glucose, Average (Week 2-5)",[1],6.4 ± 2.4 mmol/L
same,"blood glucose, Day 1",[1],17.1 ± 2.8 mmol/L
same,Yield of good (edible) peaches,"[2]; 60 trees per group, some insecticides/fungicides co-applied",3000 kg
same,harvest dates earlier,[2]; groups C and D,1 week
same,concentration in Leg muscle,[3],5.2 ± 3.2 nmol/g
same,concentration in kidney,[3],3.1 ± 1.4 nmol/g
same,concentration in liver,[3],1.2 ± 1.1 nmol/g
same,concentration in pancreas,[3],2.7 ± 1.3 nmol/g
same,concentration in stomach,[3],4.3 ± 1.1 nmol/g
same,"Cholesterol (total), Day 1",SLAC/DB/DB obese mice,7.1 ± 0.4 mmol/L
same,"Cholesterol (total), Week 5",SLAC/DB/DB obese mice,4.1 ± 0.4 mmol/L
same,"Triglycerides, Day 1",SLAC/DB/DB obese mice,4.1 ± 0.5 mmol/L
same,"Triglycerides, Week 5",SLAC/DB/DB obese mice,1.5 ± 0.3 mmol/L
same,"blood glucose, Day 1",SLAC/DB/DB obese mice,14.1 ± 2.6 mmol/L
same,"blood glucose, Week 5",SLAC/DB/DB obese mice,6.8 ± 2.8 mmol/L
same,GABA in Striatum,[4],4.9 ± 1.6 μmol/g wet tissue
same,GABA in Substantia nigra,[4],4.7 ± 0.5 μmol/g wet tissue
same,GSH in the substantia nigra,[4],143 ± 13 μg/g protein
same,Glu in Striatum,[4],26.5 ± 2.7
same,Glu in Substantia nigra,[4],29.5 ± 2.4
same,MDA in the substantia nigra,[4],14 ± 4 μmol/g protein
